One series relates to swine adipose tissue. In words: Inhibition of lipogenesis (lipid synthesis from glucose-U-14C) in slices of swine adipose tissue in vitro. It is filed as cell-based. The note with it: Sus scrofa, 100 micrograms per milliliter, 2 hours at 37° C, 5% DMSO, read-out: Percent Inhibition of lipogenesis (lipid synthesis) compared to control. From the text: The manner in which they cause this effect is not known with certainty; it is believed that they interfere with the synthesis of fatty acids in the tissues. Their effectiveness for this purpose has been ascertained in one series of tests by immersing samples of swine adipose tissue in a liquid medium containing radioactive glucose and the test chemical, for a period of time, then isolating the lipid from the treated tissue and determining the up-take of the radioactive carbon by means of scintillation counting techniques. These tests were conducted in swine adipose tissue because in swine, the primary site of lipogenesis--i.e., fatty acid synthesis--appears to be adipose tissue.
Described in more detail, the tests were conducted according to the following general procedure:
150 Milligrams of slices of swine adipose tissue were incubated at 37° C for 2 hours with shaking in 3 milliliters of Krebs-Ringer bicarbonate solution containing one half the normal calcium ion concentration, 60 micromoles of glucose, 0.5 micro-Curie of glucose-U^14 C, 300 microunits of insulin, and 5% dimethyl sulfoxide (DMSO). The test compounds were added as suspensions or solutions in DMSO and were present at a concentration of 100 micrograms per milliliter of the incubation mixture.
The incubation was terminated by addition of 0.25 milliliter of 1 N sulfuric acid. The resulting mixture was extracted with a total of 25 milliliters of chloroform:methanol (2:1, v/v). The extracts were washed according to Folch et al. (J. Biol. Chem., 226, 497-509, (1957)), air dried, and counted in a liquid scintillation counter with 15 milliliters of counting fluid (two parts toluene containing 0.4% w/v New England Nuclear Omnifluor; 1 part Triton X-100. The tests were conducted in triplicate and were accompanied by control tests in which all ingredients,proportions and conditions were the same except that no test compound was included. From the data obtained were calculated the percent inhibition of lipid synthesis by the test compound in each case. The data obtained from the tests are set out in Table 1, as the percent inhibition of lipogenesis compared to the results obtained in the control tests wherein only the test compound was omitted.

In the next series the test system is swine. Put plainly: In vivo test in young, growing pigs fed Compound 1; lipogenesis in adipose tissue biopsy slices. The note with it: in feed, approximately 50 mg/kg body weight per day for seven days. As to the method: The effect of compound 1 on inhibition of lipogenesis in swine was confirmed by an in vivo test in which Compound 1 was included in the feed given to young, growing pigs for seven days, at a dosage of approximately 50 milligrams of Compound 1 per kilogram of the pig's body weight per day. Adipose tissue biopsy samples were taken at days 0, 6, 7 and 13 (one week off the drug) and the effect of the test compound on lipogenesis was determined using tissue slices prepared from the biopsy samples, by the procedure used in the in vitro tests.

Series [1] concerns whole epididymal fat pads. In words: Inhibition of incorporation of acetate-1-14C into long chain fatty acids in rat epididymal fat pads. It is filed as cell-based, Sprague-Dawley rats. The note with it: for inhibition at 100 µM: 1 h, 10^-4 M, 60 minutes, acetate-1-14C, read-out: Percent Inhibition of incorporation of acetate into long chain fatty acids. Here is the method: The effect of Compounds 1, 15, 19, 20, 21, 22 and 33 on rats was determined by a modification of the method of D. D. Feller, J. Biol. Chem., 206, 171 (1954): whole epididymal fat pads from 110-150 gram Sprague-Dawley rats were incubated in 4 milliliters of Krebs-Ringer bicarbonate buffer for 30 minutes in an atmosphere of 95% O2 -5% CO2. At the end of the 30 minute period 1 milliliter of Krebs-Ringer bicarbonate buffer containing 8.2 micromoles of acetate (0.1 microcuries of acetate-1-^14 C), 55.0 micromoles of glucose and 50.0 micromoles of succinic acid was added to the incubating mixture and the incubation was continued for 60 minutes more. Test compounds were dissolved in dimethyl sulfoxide (DMSO) and added to the incubating mixture with the fat pad. […] The concentration of the test compound in the liquid medium was 10^-4 M. The incubation was carried out with paired fat pads; the contralateral fat pad from the same rat served as the untreated control.
After incubation, the fat pads were washed in two 5 milliliter aliquots of normal saline and extracted twice with 20 milliliters of chloroform:methanol (2:1) by vigorous shaking for 60 minutes. The extracts were combined and brought to volume with fresh organic solvent in a 50 milliliter volumetric flask containing 1 milliliter of 3N hydrochloric acid. A 5 milliliter aliquot of this mixture was transferred into a 20 milliliter scintillator vial and evaporated to dryness (50° C) to remove traces of acetic acid. To the vials were added 17 ml of scintillator solution consisting of 0.3% diphenyloxazole and 0.01% of 1,4-bis(2,5-phenyloxazolyl)benzene in a solvent of 23% ethanol in toluene. Radioactivity was measured by liquid scintillation counting.
Table II indicates the percent inhibition of incorporation of the acetate into long chain fatty acids--a measure of inhibition of lipogenesis.

Another series deals with rats. Put plainly: Rats fed Compound 1 in the diet; lipogenesis by weighing fat pads. It is filed as in vivo. The note with it: Compound 1 in diet, compared to control rats.

Regarding `OCCNc1nc(N2CCOCC2)nc(C(Cl)(Cl)Cl)n1` [Compound 1], in the series with swine adipose tissue, the inhibition at 100 µg/mL was found to be 63%. Also, the symptom of toxicity entry with swine is on record as “No symptom of toxicity due to the test compound was noted”. Besides, the “effect on lipogenesis in adipose tissue biopsy samples” value in the series with swine (day 13 (one week off the drug)) is “significantly reduced lipogenesis”. In addition, in series [1], the inhibition at 100 µM worked out at 57%. Moreover, the “inhibition of lipogenesis, by weighing fat pads on sacrifice” value in the series on rats is reported as “lipogenesis had been inhibited to a significant extent”.
For the compound `OCCCNc1nc(N2CCOCC2)nc(C(Cl)(Cl)Cl)n1` [Compound 2], the inhibition at 100 µg/mL in the series on swine adipose tissue was 59%.
For the compound `CC(=O)OCCNc1nc(N2CCOCC2)nc(C(Cl)(Cl)Cl)n1` [Compound 3], the inhibition at 100 µg/mL with swine adipose tissue is 33%.
On the same count and under the same terms, in the case of `CC(O)CNc1nc(N2CCOCC2)nc(C(Cl)(Cl)Cl)n1` (stereo not shown) [Compound 4] it was 44%.
On the same count and under the same terms, in the case of `COCCCNc1nc(NCCO)nc(C(Cl)(Cl)Cl)n1` [Compound 5] it was 44%; in that of `CC(C)OCCCNc1nc(N(CCO)CCO)nc(C(Cl)(Cl)Cl)n1` [Compound 6], 62%; in that of `CN(CCO)c1nc(N2CCOCC2)nc(C(Cl)(Cl)Cl)n1` [Compound 7], 32%.
For the compound `CN(CCO)c1nc(NCCO)nc(C(Cl)(Cl)Cl)n1` [Compound 8], the inhibition at 100 µg/mL with swine adipose tissue is 58%.
Turning to `CN(C)C(=O)OCCNc1nc(N2CCOCC2)nc(C(Cl)(Cl)Cl)n1` [Compound 9], the inhibition at 100 µg/mL with swine adipose tissue was 65%.
Same read-out and setting: as for `COC(=O)CCC(=O)OCCNc1nc(N2CCOCC2)nc(C(Cl)(Cl)Cl)n1` [Compound 10], the figure is 43%; as for `CC(=O)N1CCN(c2nc(NCC(C)O)nc(C(Cl)(Cl)Cl)n2)CC1` (stereo not shown) [Compound 11], 72%; as for `CC(O)CNc1nc(N2CCN(C(=O)Nc3ccccc3)CC2)nc(C(Cl)(Cl)Cl)n1` (stereo not shown) [Compound 12], 29%.
As to `CC(O)CNc1nc(N2CCN(C(=O)CCC(=O)O)CC2)nc(C(Cl)(Cl)Cl)n1` (stereo not shown) [Compound 13], the inhibition at 100 µg/mL in the series with swine adipose tissue came out at 21%. In addition, the “inhibition of acetate incorporation (in words)” value in series [1] (same procedure as Table II) is given as “not to inhibit acetate incorporation”.
With `CC(=O)NCCNc1nc(N2CCOCC2)nc(C(Cl)(Cl)Cl)n1` [Compound 14], the inhibition at 100 µg/mL in the series with swine adipose tissue was found to be 66%.
In the case of `O=C(O)CCNc1nc(N2CCOCC2)nc(C(Cl)(Cl)Cl)n1` [Compound 15], the inhibition at 100 µg/mL with swine adipose tissue turned out to be 44%. Moreover, in series [1], the inhibition at 100 µM is 29%.
`CCNc1nc(NCCC(=O)N2CCOCC2)nc(C(Cl)(Cl)Cl)n1` [Compound 16]: the inhibition at 100 µg/mL with swine adipose tissue was determined as 38%.
On the same count and under the same terms, as for `CC(C)(CO)Nc1nc(NCCCN2CCOCC2)nc(C(Cl)(Cl)Cl)n1` [Compound 17], the figure is 43%; as for `OCCNc1nc(N2CCCC2)nc(C(Cl)(Cl)Cl)n1` [Compound 18], 63%.
With `O=C(NCCO)N1CCN(c2nc(NCCO)nc(C(Cl)(Cl)Cl)n2)CC1` [Compound 19], the inhibition at 100 µg/mL in the series with swine adipose tissue is 75%. The inhibition at 100 µM in series [1] worked out at 44%.
The matching figures for `CN1CCN(c2nc(NCCO)nc(C(Cl)(Cl)Cl)n2)CC1` [Compound 20]: 27% and 56%.
As for `OCCNc1nc(N2CCNCC2)nc(C(Cl)(Cl)Cl)n1` [Compound 21], the inhibition at 100 µM in series [1] worked out at 65%.
Still for that read-out and setting: in the case of `CC(O)CNc1nc(N2CCNCC2)nc(C(Cl)(Cl)Cl)n1` (stereo not shown) [Compound 22] it was 30%.
On the same count and under the same terms, in the case of `CCNc1nc(N2CCCCC2)nc(C(Cl)(Cl)Cl)n1` [Compound 33] it was 31%.
